Data published in article PMC6321168, “Comparative Study on Excretive Characterization of Main Components in Herb Pair Notoginseng-Safflower and Single Herbs by LC–MS/MS” (Pharmaceutics, 2018).

Experiment: Fecal excretion study in rats after oral NS, SF or CNS (LC–MS/MS)
Format: in vivo
Settings: rat feces
Description: The animal room was set at constant temperature of 20 ± 2 °C with humidity of 50 ± 20% and 12/12 h light/dark cycle.
Eighteen male rats were fasted for 12 h before starting the experiment. The rats were divided into three groups at random (n = 6) and received NS (60 mg/kg), SF (50 mg/kg), and NS (60 mg/kg) + SF (50 mg/kg), respectively, by oral gavage. The rats were placed in separate metabolic cages. The urine samples were collected at 0–2, 2–4, 4–6, 6–8, 8–12, 12–24, 24–36, 36–48, 48–72, 72–96, and 96–120 h. The feces samples were collected at 0–4, 4–8, 8–12, 12–24, 24–36, 36–48, 48–72, 72–96, and 96–120 h. The urine volume was recorded and the dry feces were measured for each collection period. Samples were stored at −80 °C until analysis.
Feces samples were homogenized in ultrapure water (1 g/15 mL), soaked for 30 min, ultrasonically extracted for 30 min and centrifuged at 9000 rpm for 8 min. An aliquot of 200 μL feces water extraction solution was mixed with 10 μL of IS and then extracted three times with water-saturated n-BuOH (150 μL). The upper organic phase was combined and evaporated to dryness using a ZLS-2 vacuum centrifugal concentrator. The residue was treated as the urine sample and a 1-μL aliquot was injected for LC–MS analysis.
Ultra fast liquid chromatography (UFLC) analysis was performed using a Shimadzu UFLC system (DGU-20A3R Degasser; LC-20AD pump; SIL-20AXR Autosampler; CTO-20AC Column Oven) (Nakagyo-Ku, Koyoto, Japan). […] Because of the different endogenous substances in the urine and feces samples, different elution gradients were used to alleviate the matrix effects for the analytes.
The mass spectrometric detection was performed on an ABSciex 4500 Qtrap mass spectrometer (ABSciex, Foster City, CA, USA) equipped with a negative electrospray ionization (ESI) interface using multiple reaction monitoring (MRM). The MS parameters were optimized under the selected ion monitoring conditions as follows: curtain gas, 35 psi; ionspray voltage, 4500 V; turbo gas temperature, 450 °C; GS1, 45 psi; GS2, 45 psi. All data were acquired and analyzed by Analyst software (Versions 1.6.2) from ABSciex.
The accumulative excretion percentage was calculated for each analyte as follows. Excretion at time (t) = [concentration of the analyte (ng/mL) at t] × total urine (or feces) volume (mL) at t. The cumulative excretion up to time t (mg) was expressed as a percent (%) cumulative excretion by dividing by the total amount of the analyte ingested (mg): % Cumulative Excretion = 100 × (Σt excretiont) total ingested.

CC(C)=CCC[C@](C)(O[C@@H]1O[C@H](CO)[C@@H](O)[C@H](O)[C@H]1O)[C@H]1CC[C@]2(C)[C@@H]1[C@H](O)C[C@@H]1[C@@]3(C)CC[C@H](O)C(C)(C)[C@@H]3[C@@H](O[C@@H]3O[C@H](CO)[C@@H](O)[C@H](O)[C@H]3O[C@@H]3O[C@@H](C)[C@H](O)[C@@H](O)[C@H]3O)C[C@]12C [ginsenoside Re] showed a concentration at 4 h (male, Sprague Dawley, oral CNS 110 mg/kg, 4 h) of 87 ± 124 ng/mL, a concentration at 8 h (male, Sprague Dawley, oral CNS 110 mg/kg, 8 h) of 267 ± 204 ng/mL and a concentration at 12 h (male, Sprague Dawley, oral CNS 110 mg/kg, 12 h) of 330 ± 26 ng/mL. It also gave a concentration at 24 h (male, Sprague Dawley, oral CNS 110 mg/kg, 24 h) of 366 ± 20 ng/mL, a concentration at 36 h (male, Sprague Dawley, oral CNS 110 mg/kg, 36 h) of 367 ± 26 ng/mL and a concentration at 48 h (male, Sprague Dawley, oral CNS 110 mg/kg, 48 h) of 354 ± 28 ng/mL. It also gave a concentration at 72 h (male, Sprague Dawley, oral CNS 110 mg/kg, 72 h) of 168 ± 69 ng/mL, a concentration at 96 h (male, Sprague Dawley, oral CNS 110 mg/kg, 96 h) of 44 ± 43 ng/mL and a concentration at 4 h (male, Sprague Dawley, oral NS 60 mg/kg, 4 h) of 323 ± 43 ng/mL. For the same compound, the concentration at 8 h (male, Sprague Dawley, oral NS 60 mg/kg, 8 h) was 455 ± 18 ng/mL, the concentration at 12 h (male, Sprague Dawley, oral NS 60 mg/kg, 12 h) was 401 ± 27 ng/mL and the concentration at 24 h (male, Sprague Dawley, oral NS 60 mg/kg, 24 h) was 430 ± 15 ng/mL. It also gave a concentration at 36 h (male, Sprague Dawley, oral NS 60 mg/kg, 36 h) of 421 ± 18 ng/mL, a concentration at 48 h (male, Sprague Dawley, oral NS 60 mg/kg, 48 h) of 561 ± 26 ng/mL and a concentration at 72 h (male, Sprague Dawley, oral NS 60 mg/kg, 72 h) of 81 ± 6 ng/mL. It also gave a concentration at 96 h (male, Sprague Dawley, oral NS 60 mg/kg, 96 h) of 18 ± 1 ng/mL, a concentration at 120 h (male, Sprague Dawley, oral NS 60 mg/kg, 120 h) of 17 ± 2 ng/mL and an Accumulative excretion amount (oral CNS 110 mg/kg, 4 h) of 1.098 ± 1.616 µg. For the same compound, the Accumulative excretion percentage (oral CNS 110 mg/kg, 4 h) was 0.234±0.345%, the Excretion amount (oral CNS 110 mg/kg, 4 h) was 1.098 ± 1.616 µg and the Accumulative excretion amount (oral CNS 110 mg/kg, 8 h) was 4.802 ± 4.393 µg. For the same compound, the Accumulative excretion percentage (oral CNS 110 mg/kg, 8 h) was 1.022±0.936%, the Excretion amount (oral CNS 110 mg/kg, 8 h) was 3.705 ± 2.813 µg and the Accumulative excretion amount (oral CNS 110 mg/kg, 12 h) was 9.675 ± 4.726 µg. It also gave an Accumulative excretion percentage (oral CNS 110 mg/kg, 12 h) of 2.051±1.001%, an Excretion amount (oral CNS 110 mg/kg, 12 h) of 4.873 ± 1.226 µg and an Accumulative excretion amount (oral CNS 110 mg/kg, 24 h) of 15.135 ± 5.426 µg. The Accumulative excretion percentage (oral CNS 110 mg/kg, 24 h) was 3.203±1.152%, the Excretion amount (oral CNS 110 mg/kg, 24 h) was 5.459 ± 1.584 µg and the Accumulative excretion amount (oral CNS 110 mg/kg, 36 h) was 20.570 ± 6.347 µg. It also gave an Accumulative excretion percentage (oral CNS 110 mg/kg, 36 h) of 4.364±1.343%, an Excretion amount (oral CNS 110 mg/kg, 36 h) of 5.435 ± 1.413 µg and an Accumulative excretion amount (oral CNS 110 mg/kg, 48 h) of 25.852 ± 7.369 µg. For the same compound, the Accumulative excretion percentage (oral CNS 110 mg/kg, 48 h) was 5.469±1.568%, the Excretion amount (oral CNS 110 mg/kg, 48 h) was 5.282 ± 1.513 µg and the Accumulative excretion percentage (oral CNS 110 mg/kg, 72 h) was 6.027±1.613%. The Excretion amount (oral CNS 110 mg/kg, 72 h) was 2.615 ± 1.424 µg, the Accumulative excretion amount (oral CNS 110 mg/kg, 96 h) was 29.184 ± 7.675 µg and the Accumulative excretion percentage (oral CNS 110 mg/kg, 96 h) was 6.182±1.623%. For the same compound, the Excretion amount (oral CNS 110 mg/kg, 96 h) was 0.717 ± 0.713 µg, the Accumulative excretion amount (oral CNS 110 mg/kg, 120 h) was 29.184 ± 7.675 µg and the Accumulative excretion percentage (oral CNS 110 mg/kg, 120 h) was 6.182±1.623%. The Accumulative excretion amount (oral NS 60 mg/kg, 4 h) was 4.585 ± 1.408 µg, the Accumulative excretion percentage (oral NS 60 mg/kg, 4 h) was 0.852±0.261% and the Excretion amount (oral NS 60 mg/kg, 4 h) was 4.585 ± 1.408 µg. For the same compound, the Accumulative excretion amount (oral NS 60 mg/kg, 8 h) was 11.148 ± 3.459 µg, the Accumulative excretion percentage (oral NS 60 mg/kg, 8 h) was 2.063±0.644% and the Excretion amount (oral NS 60 mg/kg, 8 h) was 6.563 ± 2.122 µg. The Accumulative excretion amount (oral NS 60 mg/kg, 12 h) was 16.907 ± 5.229 µg, the Accumulative excretion percentage (oral NS 60 mg/kg, 12 h) was 3.122±0.971% and the Excretion amount (oral NS 60 mg/kg, 12 h) was 5.759 ± 1.787 µg. It also gave an Accumulative excretion amount (oral NS 60 mg/kg, 24 h) of 23.057 ± 7.062 µg, an Accumulative excretion percentage (oral NS 60 mg/kg, 24 h) of 4.266±1.305% and an Excretion amount (oral NS 60 mg/kg, 24 h) of 6.150 ± 1.850 µg. For the same compound, the Accumulative excretion amount (oral NS 60 mg/kg, 36 h) was 29.162 ± 9.141 µg, the Accumulative excretion percentage (oral NS 60 mg/kg, 36 h) was 5.397± 1.699% and the Excretion amount (oral NS 60 mg/kg, 36 h) was 6.105 ± 2.098 µg. The Accumulative excretion amount (oral NS 60 mg/kg, 48 h) was 37.268 ± 11.835 µg, the Accumulative excretion percentage (oral NS 60 mg/kg, 48 h) was 6.892±2.193% and the Excretion amount (oral NS 60 mg/kg, 48 h) was 8.106 ± 2.700 µg. The Accumulative excretion amount (oral NS 60 mg/kg, 72 h) was 38.423 ± 12.180 µg, the Accumulative excretion percentage (oral NS 60 mg/kg, 72 h) was 7.103±2.254% and the Excretion amount (oral NS 60 mg/kg, 72 h) was 1.155 ± 0.306 µg. The Accumulative excretion amount (oral NS 60 mg/kg, 96 h) was 38.685 ± 12.265 µg, the Accumulative excretion percentage (oral NS 60 mg/kg, 96 h) was 7.149±2.268% and the Excretion amount (oral NS 60 mg/kg, 96 h) was 0.262 ± 0.086 µg. It also gave an Accumulative excretion amount (oral NS 60 mg/kg, 120 h) of 38.937 ± 12.350 µg, an Accumulative excretion percentage (oral NS 60 mg/kg, 120 h) of 7.187±2.278% and an Excretion amount (oral NS 60 mg/kg, 120 h) of 0.252 ± 0.091 µg.
